These results are taken from patent US20110263693A1, “CELASTROL, GEDUNIN, AND DERIVATIVES THEREOF AS HSP90 INHIBITORS” (DANA-FARBER CANCER INSTITUTE, INC., priority 2006, published 2011).

In one data set the test system is androgen signaling signature in LNCaP cells. As to the kind of experiment: GE-HTS androgen signaling signature assay / screen. The conditions noted are these: LNCaP, 1 nM R1881 plus compound ~20 μM, 24 hr; count of 3 replicates.
For `CC(=O)O[C@@H]1CC2C(C)(C)[C@H](O)CC[C@]2(C)C2CC[C@@]3(C)[C@H](c4ccoc4)OC(=O)C4OC43[C@@]21C` (stereo partly drawn) [3alpha-hydroxydeoxodihydrogedunin], the “GE-HTS screen # replicates that score as the androgon deprived state (n = 3): KNN” value is listed as 3, the “GE-HTS screen # replicates that score as the androgon deprived state (n = 3): Naïve Bayes classifier (P < 0.05)” value was determined as 3, the “GE-HTS screen # replicates that score as the androgon deprived state (n = 3): unweighted summed score (P < 0.05)” value is 3 and the “GE-HTS screen # replicates that score as the androgon deprived state (n = 3): weighted summed score (P < 0.05)” value came out at 3.
For `CC(=O)O[C@H]1CC[C@]2(C)C(C[C@@H](OC(C)=O)[C@]3(C)C4=CC(=O)O[C@H](c5ccoc5)[C@@]4(C)CCC23)C1(C)C` (stereo partly drawn) [3-deoxo-3beta-acetoxydeoxydihydrogedunin], the “GE-HTS screen # replicates that score as the androgon deprived state (n = 3): KNN” value amounted to 3, the “GE-HTS screen # replicates that score as the androgon deprived state (n = 3): Naïve Bayes classifier (P < 0.05)” value was found to be 3, the “GE-HTS screen # replicates that score as the androgon deprived state (n = 3): unweighted summed score (P < 0.05)” value is recorded as 3 and the “GE-HTS screen # replicates that score as the androgon deprived state (n = 3): weighted summed score (P < 0.05)” value stood at 3.
Take `CC(=O)O[C@@H]1C[C@H]2C(C)(C)C(=O)C=C[C@]2(C)[C@H]2CC[C@]3(C)C(=CC(=O)O[C@H]3c3ccoc3)[C@@]21C` [deoxygedunin]: the “GE-HTS screen # replicates that score as the androgon deprived state (n = 3): KNN” value is 2, the “GE-HTS screen # replicates that score as the androgon deprived state (n = 3): Naïve Bayes classifier (P < 0.05)” value is given as 2, the “GE-HTS screen # replicates that score as the androgon deprived state (n = 3): unweighted summed score (P < 0.05)” value is reported as 3 and the “GE-HTS screen # replicates that score as the androgon deprived state (n = 3): weighted summed score (P < 0.05)” value is 3.
Consider `COP(=S)(OC)Oc1ccc([N+](=O)[O-])cc1` [methyl parathione], for which the “GE-HTS screen # replicates that score as the androgon deprived state (n = 3): KNN” value was determined as 3, the “GE-HTS screen # replicates that score as the androgon deprived state (n = 3): Naïve Bayes classifier (P < 0.05)” value worked out at 1, the “GE-HTS screen # replicates that score as the androgon deprived state (n = 3): unweighted summed score (P < 0.05)” value is on record as 3 and the “GE-HTS screen # replicates that score as the androgon deprived state (n = 3): weighted summed score (P < 0.05)” value was determined as 0.
`CC1(C)C(=O)C=C[C@]2(C)[C@H]3CC[C@@]4(C)[C@H](c5ccoc5)OC(=O)[C@H]5O[C@]54[C@]3(C)C=C[C@@H]12` [7-desacetoxy-6,7-dehydrogedunin]: the “GE-HTS screen # replicates that score as the androgon deprived state (n = 3): KNN” value is reported as 3, the “GE-HTS screen # replicates that score as the androgon deprived state (n = 3): Naïve Bayes classifier (P < 0.05)” value stood at 3, the “GE-HTS screen # replicates that score as the androgon deprived state (n = 3): unweighted summed score (P < 0.05)” value stood at 3 and the “GE-HTS screen # replicates that score as the androgon deprived state (n = 3): weighted summed score (P < 0.05)” value is 3.
Take `CC[C@@]1([C@@H]2O[C@@H]([C@H]3O[C@@](O)(CO)[C@H](C)C[C@@H]3C)C[C@@H]2C)CC[C@H]([C@]2(C)CC[C@]3(C[C@H](O)[C@@H](C)[C@@H]([C@@H](C)[C@@H](OC)[C@H](C)C(=O)O)O3)O2)O1` [monensin A, reference compound]: the “GE-HTS screen # replicates that score as the androgon deprived state (n = 3): KNN” value worked out at 2, the “GE-HTS screen # replicates that score as the androgon deprived state (n = 3): Naïve Bayes classifier (P < 0.05)” value is on record as 2, the “GE-HTS screen # replicates that score as the androgon deprived state (n = 3): unweighted summed score (P < 0.05)” value is 0 and the “GE-HTS screen # replicates that score as the androgon deprived state (n = 3): weighted summed score (P < 0.05)” value turned out to be 0.
Regarding `COc1ccc(C(C)C(=O)c2ccc(O)cc2O)cc1` (stereo not drawn) [angolensin], the “GE-HTS screen # replicates that score as the androgon deprived state (n = 3): KNN” value is 3, the “GE-HTS screen # replicates that score as the androgon deprived state (n = 3): Naïve Bayes classifier (P < 0.05)” value is on record as 3, the “GE-HTS screen # replicates that score as the androgon deprived state (n = 3): unweighted summed score (P < 0.05)” value turned out to be 3 and the “GE-HTS screen # replicates that score as the androgon deprived state (n = 3): weighted summed score (P < 0.05)” value is reported as 3.
In the case of `COC(=O)[C@H](O)[C@H]1C(C)(C)[C@H](OC(C)=O)[C@@H]2CC3=C4CC(=O)O[C@@H](c5ccoc5)[C@]4(C)CC[C@@H]3[C@@]1(C)C2=O` [swietenolide-3-acetate], the “GE-HTS screen # replicates that score as the androgon deprived state (n = 3): KNN” value is given as 2, the “GE-HTS screen # replicates that score as the androgon deprived state (n = 3): Naïve Bayes classifier (P < 0.05)” value was found to be 2, the “GE-HTS screen # replicates that score as the androgon deprived state (n = 3): unweighted summed score (P < 0.05)” value was determined as 2 and the “GE-HTS screen # replicates that score as the androgon deprived state (n = 3): weighted summed score (P < 0.05)” value is 2.
For the molecule `CN(C)CCOC(c1ccccc1)c1ccccc1.Cn1c(=O)c2[nH]c(Cl)nc2n(C)c1=O` [dimenhydrinate, reference compound], the “GE-HTS screen # replicates that score as the androgon deprived state (n = 3): KNN” value was determined as 3, the “GE-HTS screen # replicates that score as the androgon deprived state (n = 3): Naïve Bayes classifier (P < 0.05)” value is listed as 3, the “GE-HTS screen # replicates that score as the androgon deprived state (n = 3): unweighted summed score (P < 0.05)” value amounted to 0 and the “GE-HTS screen # replicates that score as the androgon deprived state (n = 3): weighted summed score (P < 0.05)” value came out at 0.
`CC(C)(C)c1cc(/C=C(\C#N)C(N)=S)cc(C(C)(C)C)c1O` [AG-879, reference compound]: the “GE-HTS screen # replicates that score as the androgon deprived state (n = 3): KNN” value was 3, the “GE-HTS screen # replicates that score as the androgon deprived state (n = 3): Naïve Bayes classifier (P < 0.05)” value is given as 2, the “GE-HTS screen # replicates that score as the androgon deprived state (n = 3): unweighted summed score (P < 0.05)” value is 2 and the “GE-HTS screen # replicates that score as the androgon deprived state (n = 3): weighted summed score (P < 0.05)” value amounted to 2.
Take avermectin B1 [reference compound]: the “GE-HTS screen # replicates that score as the androgon deprived state (n = 3): KNN” value turned out to be 3, the “GE-HTS screen # replicates that score as the androgon deprived state (n = 3): Naïve Bayes classifier (P < 0.05)” value amounted to 2, the “GE-HTS screen # replicates that score as the androgon deprived state (n = 3): unweighted summed score (P < 0.05)” value worked out at 2 and the “GE-HTS screen # replicates that score as the androgon deprived state (n = 3): weighted summed score (P < 0.05)” value is on record as 2.
Take `CC(=O)O[C@H]1CC[C@]2(C)[C@H]3C(=O)C=C4[C@@H]5[C@@H](C)[C@H](C)CC[C@]5(C(=O)O)CC[C@@]4(C)[C@]3(C)CC[C@H]2C1(C)C` [11-oxoursolic acid acetate]: the “GE-HTS screen # replicates that score as the androgon deprived state (n = 3): KNN” value was 3, the “GE-HTS screen # replicates that score as the androgon deprived state (n = 3): Naïve Bayes classifier (P < 0.05)” value was 1, the “GE-HTS screen # replicates that score as the androgon deprived state (n = 3): unweighted summed score (P < 0.05)” value was 3 and the “GE-HTS screen # replicates that score as the androgon deprived state (n = 3): weighted summed score (P < 0.05)” value is given as 2.
Regarding `CC1(C)C(=O)CC[C@]2(C)[C@H]3CC[C@]4(C)C(=CC(=O)O[C@H]4c4ccoc4)[C@]3(C)[C@H](O)C[C@@H]12` [dihydro-7-desacetyldeoxygedunin], the “GE-HTS screen # replicates that score as the androgon deprived state (n = 3): KNN” value was determined as 3, the “GE-HTS screen # replicates that score as the androgon deprived state (n = 3): Naïve Bayes classifier (P < 0.05)” value is 2, the “GE-HTS screen # replicates that score as the androgon deprived state (n = 3): unweighted summed score (P < 0.05)” value came out at 2 and the “GE-HTS screen # replicates that score as the androgon deprived state (n = 3): weighted summed score (P < 0.05)” value is given as 1.
In the case of `CC(=O)O[C@@H]1CC2C(C)(C)CCC[C@]2(C)C2CC[C@]3(C)C(=CC(=O)O[C@H]3c3ccoc3)[C@@]21C` (stereo partly drawn) [deoxodeoxydihydrogedunin], the “GE-HTS screen # replicates that score as the androgon deprived state (n = 3): KNN” value is recorded as 0, the “GE-HTS screen # replicates that score as the androgon deprived state (n = 3): Naïve Bayes classifier (P < 0.05)” value came out at 3, the “GE-HTS screen # replicates that score as the androgon deprived state (n = 3): unweighted summed score (P < 0.05)” value stood at 2 and the “GE-HTS screen # replicates that score as the androgon deprived state (n = 3): weighted summed score (P < 0.05)” value came to 2.

The data set is the same for the next values; noted with them: control wells, 1 nM R1881 plus 10 μM casodex; count of n = 336.
In the case of `CC(O)(CS(=O)(=O)c1ccc(F)cc1)C(=O)Nc1ccc(C#N)c(C(F)(F)F)c1` (stereo not drawn) [casodex, bicalutamide, reference compound], the “GE-HTS screen # replicates that score as the androgon deprived state: KNN” value is 283, the “GE-HTS screen # replicates that score as the androgon deprived state: Naïve Bayes classifier (P < 0.05)” value came to 268, the “GE-HTS screen # replicates that score as the androgon deprived state: unweighted summed score (P < 0.05)” value was found to be 257 and the “GE-HTS screen # replicates that score as the androgon deprived state: weighted summed score (P < 0.05)” value worked out at 261.

The test system of another data set is LNCaP cells. Put plainly: Viability screen, luminescent ATP quantitation assay. The note with it: 1 nM R1881 plus compound ~20 μM, 3 days.
`CC(=O)O[C@H]1CC[C@]2(C)C(C[C@@H](OC(C)=O)[C@]3(C)C4=CC(=O)O[C@H](c5ccoc5)[C@@]4(C)CCC23)C1(C)C` (stereo partly drawn) [3-deoxo-3beta-acetoxydeoxydihydrogedunin]: the “viability screen: viability (% [ATP] normalized to R1881-treated control)” value is listed as 51.0%.
Same read-out and setting: under `CC(=O)O[C@@H]1C[C@H]2C(C)(C)C(=O)C=C[C@]2(C)[C@H]2CC[C@]3(C)C(=CC(=O)O[C@H]3c3ccoc3)[C@@]21C` [deoxygedunin] stands 63.3%; under `CC[C@@]1([C@@H]2O[C@@H]([C@H]3O[C@@](O)(CO)[C@H](C)C[C@@H]3C)C[C@@H]2C)CC[C@H]([C@]2(C)CC[C@]3(C[C@H](O)[C@@H](C)[C@@H]([C@@H](C)[C@@H](OC)[C@H](C)C(=O)O)O3)O2)O1` [monensin A, reference compound], 113.6%.
